Test systems include HT29 colon; NCI-H522 lung; SNB-19 CNS; SNB-78 CNS; M19-MEL melanoma; P388 leukemia; DMS 114 small cell lung; DMS 273 small cell lung; HOP-18 NSCLC; DLD-1 colon; KM20L2 colon; HL-60(TB) leukemia; RXF-631 renal; MALME-3M melanoma; NCI-H460 lung; MDA-MB-435; MDA-N; 786-0 renal.
Holding throughout (assay): NCI tumour cell line growth inhibition, 48 h

SMILES strings stand for the structures.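 Results reflect a 48-hour exposure of cells in 96-well plates to compound at five concentrations. GI50 is the concentration that inhibits growth by half. TGI: total growth inhibition.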

As for `Clc1ccc2c(NCCNc3nc(-c4ccccc4)cc(-c4ccccc4)n3)ccnc2c1`, in the experiment with HT29 colon, the GI50 was 1.66 µM and the TGI was 3.31 µM. For the same compound, in the experiment on NCI-H522 lung, the GI50 is 1.87 µM and the TGI is 3.76 µM.

`Nc1nc(=O)n(C2OC(CO)C(O)C2O)cc1F` (stereo unspecified): the TGI with SNB-19 CNS is over 100 µM; with SNB-78 CNS, over 100 µM; in the experiment with M19-MEL melanoma it was over 100 µM; with P388 leukemia it was 0.0341 µM; in the experiment on DMS 114 small cell lung it was 3.26 µM; with DMS 273 small cell lung, over 100 µM. The TGI in the experiment on HT29 colon, with NCI-H522 lung, in the experiment with HOP-18 NSCLC, with DLD-1 colon and in the experiment with KM20L2 colon was over 100 µM throughout.

For `c1ccc2cc3n[se]nc3cc2c1`, the TGI with SNB-19 CNS, in the experiment on SNB-78 CNS, in the experiment with HL-60(TB) leukemia, with RXF-631 renal, in the experiment with DMS 114 small cell lung and in the experiment with DMS 273 small cell lung was over 100 µM throughout. For the same compound, the TGI in the experiment on HT29 colon, in the experiment on NCI-H522 lung, in the experiment on DLD-1 colon, in the experiment with KM20L2 colon and in the experiment on MALME-3M melanoma was over 100 µM throughout.

For the compound `O=C(O)/C(=C\c1ccccc1)Cc1ccccc1`, the TGI in the experiment on SNB-19 CNS, with NCI-H460 lung, with HL-60(TB) leukemia, in the experiment on MDA-MB-435, in the experiment on MDA-N and in the experiment on HT29 colon was over 100 µM throughout. Further, the TGI in the experiment with NCI-H522 lung, in the experiment on 786-0 renal and in the experiment with MALME-3M melanoma was over 100 µM each time.

Turning to `COc1cc2cc(C(=O)N3CC(COS(C)(=O)=O)c4c3cc([N+](=O)[O-])c3ccccc43)[nH]c2c(OC)c1OC` (stereo unspecified), the TGI is over 31.6 µM with SNB-19 CNS; over 31 µM with NCI-H460 lung; over 31.6 µM in the experiment with MDA-MB-435; over 100 µM with MDA-N; over 31.6 µM with HT29 colon; over 31.6 µM in the experiment with NCI-H522 lung.

The values are drawn from PubChem BioAssay (NCI).
